# Measured values taken from patent US8487108B2, “Piperidinyl carbamate intermediates for the synthesis of aspartic protease inhibitors” (Vitae Pharmaceuticals, Inc., priority 2005, dated 2013).
# Molecular target: T1, trypsin-activated recombinant human renin (Homo sapiens, UniProt P00797)
# T1 sequence (P00797 67-406): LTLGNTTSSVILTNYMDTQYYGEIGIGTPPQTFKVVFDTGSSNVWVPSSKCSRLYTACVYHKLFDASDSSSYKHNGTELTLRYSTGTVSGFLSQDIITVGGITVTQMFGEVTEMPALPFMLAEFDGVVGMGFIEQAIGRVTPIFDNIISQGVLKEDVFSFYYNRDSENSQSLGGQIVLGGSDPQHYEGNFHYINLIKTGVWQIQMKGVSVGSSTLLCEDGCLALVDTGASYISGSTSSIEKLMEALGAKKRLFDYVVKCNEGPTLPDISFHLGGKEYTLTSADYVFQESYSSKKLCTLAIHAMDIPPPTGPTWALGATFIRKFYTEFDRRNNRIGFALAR
# Test: Renin fluorescence assay (internally quenched peptide substrate)
# Type: biochemical
# Conditions: compounds I*
# Outline: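 Cleavage of an angiotensinogen-derived DABCYL-quenched peptide by trypsin-activated recombinant human renin (0.2-2 nM final) in 50 mM BES, 150 mM NaCl, 0.25 mg/mL BSA, pH 7.0; compounds 10 μM to 1 nM final. Fluorescence (ex 340/em 495 nm) followed 60-360 min at rt; linear-slope rates give percent inhibition versus uninhibited control.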
row,IC50 [nM],SMILES
1,< 10,"CNC[C@H](CC1CCCCC1)NC(=O)N1CCC[C@@H]([C@@H](OCCNC(=O)OC)c2cccc(C(F)(F)F)c2)C1 [I*-136a, methyl 2-((R)-((R)-1-((S)-1-cyclohexyl-3-(methylamino)propan-2-ylcarbamoyl)piperidin-3-yl)(3-(trifluoromethyl)phenyl)methoxy)ethylcarbamate]"
2,< 1,"CNC[C@H](C[C@H]1CCCCOC1)NC(=O)N1CCC[C@@H]([C@@H](OCCNC(=O)OC)c2cc(F)cc(Cl)c2)C1 [I*-141a, methyl 2-((R)-(3-chloro-5-fluorophenyl)((R)-1-((S)-1-(methylamino)-3-((R)-oxepan-3-yl)propan-2-ylcarbamoyl)piperidin-3-yl)methoxy)ethylcarbamate]"
3,> 50,"CNC[C@H](CC1CCOCC1)NC(=O)N1CCC[C@@H]([C@@H](OCCNC(=O)OC)c2cccc(C(F)(F)F)c2)C1 [I*-144a, methyl 2-((R)-((R)-1-((S)-1-(methylamino)-3-(tetrahydro-2H-pyran-4-yl)propan-2-ylcarbamoyl)piperidin-3-yl)(3-(trifluoromethyl)phenyl)methoxy)ethylcarbamate]"
4,< 1,"CNC[C@H](CC1CCC(F)(F)CC1)NC(=O)N1CCC[C@@H]([C@@H](OCCNC(=O)OC)c2cccc(Cl)c2)C1 [I*-146a, methyl 2-((R)-(3-chlorophenyl)((R)-1-((S)-1-(4,4-difluorocyclohexyl)-3-(methylamino)propan-2-ylcarbamoyl)piperidin-3-yl)methoxy)ethylcarbamate]"
5,< 20,"CNC[C@H](C[C@H]1CCC(C)(C)OC1)NC(=O)N1CCC[C@@H]([C@@H](OCCNC(=O)OC)c2cccc(F)c2)C1 [I*-154a, methyl 2-((R)-(3-fluorophenyl)((R)-1-((S)-1-((R)-6,6-dimethyl-tetrahydro-2H-pyran-3-yl)-3-(methylamino)propan-2-ylcarbamoyl)piperidin-3-yl)methoxy)ethylcarbamate]"
6,< 10,"CNC[C@H](C[C@H]1CCC(C)(C)OC1)NC(=O)N1CCC[C@@H]([C@@H](OCCNC(=O)OC)c2cc(F)cc(F)c2)C1 [I*-155a, methyl 2-((R)-(3,5-difluorophenyl)((R)-1-((S)-1-((R)-6,6-dimethyl-tetrahydro-2H-pyran-3-yl)-3-(methylamino)propan-2-ylcarbamoyl)piperidin-3-yl)methoxy)ethylcarbamate]"
7,< 20,"CNC[C@H](C[C@H]1CCC(C)(C)OC1)NC(=O)N1CCC[C@@H]([C@@H](OCCNC(=O)OC)c2ccccc2)C1 [I*-156a, methyl 2-((R)—((R)-1-((S)-1-((R)-6,6-dimethyl-tetrahydro-2H-pyran-3-yl)-3-(methylamino)propan-2-ylcarbamoyl)piperidin-3-yl)(phenyl)methoxy)ethylcarbamate]"
8,< 10,"CNC[C@H](C[C@H]1CCC(C)(C)OC1)NC(=O)N1CCC[C@@H]([C@@H](OCCNC(=O)OC)c2cccc(Cl)c2)C1 [I*-157a, methyl 2-((R)-(3-chlorophenyl)((R)-1-((S)-1-((R)-6,6-dimethyl-tetrahydro-2H-pyran-3-yl)-3-(methylamino)propan-2-ylcarbamoyl)piperidin-3-yl)methoxy)ethylcarbamate]"
9,< 10,"CNC[C@H](C[C@H]1CCC2(CC2)OC1)NC(=O)N1CCC[C@@H]([C@@H](OCCNC(=O)OC)c2cccc(Cl)c2)C1 [I*-158a, methyl 2-((R)-(3-chlorophenyl)((R)-1-((S)-1-((R)-4-oxaspiro[2.5]octan-6-yl)-3-(methylamino)propan-2-ylcarbamoyl)piperidin-3-yl)methoxy)ethylcarbamate]"

# Second part, the compound before the results:
row,SMILES,IC50 [nM]
1,"CNC[C@H](CC1CCCCCC1)NC(=O)N1CCC[C@@H]([C@@H](OCCNC(=O)OC)c2cccc(Cl)c2F)C1 [I*-135a, methyl 2-((R)-(3-chloro-2-fluorophenyl)((R)-1-((S)-1-cycloheptyl-3-(methylamino)propan-2-ylcarbamoyl)piperidin-3-yl)methoxy)ethylcarbamate]",< 10
2,"CNC[C@H](CC1CCCOCC1)NC(=O)N1CCC[C@@H]([C@@H](OCCNC(=O)OC)c2cccc(Cl)c2F)C1 (stereo partly drawn) [I*-137a, methyl 2-((R)-(3-chloro-2-fluorophenyl)((3R)-1-((S)-1-(methylamino)-3-(oxepan-4-yl)propan-2-ylcarbamoyl)piperidin-3-yl)methoxy)ethylcarbamate]",< 10
3,"CNC[C@@H](NC(=O)N1CCC[C@@H]([C@@H](OCCNC(=O)OC)c2cccc(Cl)c2F)C1)[C@@H](O)C1CCCCC1 [I*-138a, methyl 2-((R)-(3-chloro-2-fluorophenyl)((R)-1-((1S,2R)-1-cyclohexyl-1-hydroxy-3-(methylamino)propan-2-ylcarbamoyl)piperidin-3-yl)methoxy)ethylcarbamate]",< 10
4,"CNC[C@H](CC1CCCOC1)NC(=O)N1CCC[C@@H]([C@@](O)(CCCNC(=O)OC)c2cccc(Cl)c2F)C1 (stereo partly drawn) [I*-139a, methyl (S)-4-(3-chloro-2-fluorophenyl)-4-hydroxy-4-((3R)-1-((S)-1-(methylamino)-3-(tetrahydro-2H-pyran-3-yl)propan-2-ylcarbamoyl)piperidin-3-yl)butylcarbamate]",< 10
5,"CNC[C@H](C[C@H]1CCCCOC1)NC(=O)N1CCC[C@@H]([C@@H](OCCNC(=O)OC)c2cccc(Cl)c2F)C1 [I*-140a, methyl 2-((R)-(3-chloro-2-fluorophenyl)((R)-1-((S)-1-(methylamino)-3-((R)-oxepan-3-yl)propan-2-ylcarbamoyl)piperidin-3-yl)methoxy)ethylcarbamate]",< 1
6,"CNC[C@H](C[C@H]1CCCOC1)NC(=O)N1CCC[C@@H]([C@@](O)(CCCNC(=O)OC)c2cccc(Cl)c2F)C1 [I*-142a, methyl (S)-4-(3-chloro-2-fluorophenyl)-4-hydroxy-4-((R)-1-((S)-1-(methylamino)-3-((R)-tetrahydro-2H-pyran-3-yl)propan-2-ylcarbamoyl)piperidin-3-yl)butylcarbamate]",< 10
7,"CN[C@H](CNC(=O)N1CCC[C@@H]([C@@H](OCCNC(=O)OC)c2cc(F)cc(Cl)c2)C1)C[C@H]1CCCCOC1 [I*-143a, methyl 2-((R)-(3-chloro-5-fluorophenyl)((R)-1-((S)-2-(methylamino)-3-((R)-oxepan-3-yl)propylcarbamoyl)piperidin-3-yl)methoxy)ethylcarbamate]",< 1
8,"CNC[C@H](CC12CC3CC(CC(C3)C1)C2)NC(=O)N1CCC[C@@H]([C@@H](OCCNC(=O)OC)c2cccc(F)c2)C1 [I*-145a, methyl 2-((R)-((R)-1-((S)-1-(1-adamantyl)-3-(methylamino)propan-2-ylcarbamoyl)piperidin-3-yl)(3-fluorophenyl)methoxy)ethylcarbamate]",< 10
9,"CNC[C@H](CC1CCC(F)(F)CC1)NC(=O)N1CCC[C@@H]([C@@H](OCCNC(=O)OC)c2cc(F)cc(F)c2)C1 [I*-147a, methyl 2-((R)-((R)-1-((S)-1-(4,4-difluorocyclohexyl)-3-(methylamino)propan-2-ylcarbamoyl)piperidin-3-yl)(3,5-difluorophenyl)methoxy)ethylcarbamate]",< 1
10,"CNC[C@H](CC1CCOCC1)NC(=O)N1CCC[C@@H]([C@@H](OCCNC(=O)OC)c2ccc(F)c(Cl)c2F)C1 [I*-148a, methyl 2-((R)-(3-chloro-2,4-difluorophenyl)((R)-1-((S)-1-(methylamino)-3-(tetrahydro-2H-pyran-4-yl)propan-2-ylcarbamoyl)piperidin-3-yl)methoxy)ethylcarbamate]",> 50
11,"CNC[C@H](CC12CC3CC(CC1C3)C2)NC(=O)N1CCC[C@@H]([C@@H](OCCNC(=O)OC)c2cc(F)ccc2F)C1 [I*-149a, methyl 2-((R)-((R)-1-((S)-1-(3-noradamantyl)-3-(methylamino)propan-2-ylcarbamoyl)piperidin-3-yl)(2,5-difluorophenyl)methoxy)ethylcarbamate]",< 10
12,"CCC[C@](OCCNC(=O)OC)(c1cccc(Cl)c1)[C@@H]1CCCN(C(=O)N[C@H](CNC)CC2CCCCC2)C1 [I*-150a, methyl 2-((R)-1-(3-chlorophenyl)-1-((R)-1-((S)-1-cyclohexyl-3-(methylamino)propan-2-ylcarbamoyl)piperidin-3-yl)butoxy)ethylcarbamate]",< 50
13,"CNC[C@H](CC12CC3CC(CC1C3)C2)NC(=O)N1CCC[C@@H]([C@@](C)(OCCNC(=O)OC)c2cccc(Cl)c2)C1 [I*-151a, methyl 2-((R)-1-(3-chlorophenyl)-1-((3R)-1-((S)-1-(3-noradamantyl)-3-(methylamino)propan-2-ylcarbamoyl)piperidin-3-yl)ethoxy)ethylcarbamate]",< 1
14,"CNC[C@H](CC12CC3CC(CC(C3)C1)C2)NC(=O)N1CCC[C@@H]([C@@H](OCCNC(=O)OC)c2cc(F)ccc2F)C1 [I*-152a, methyl 2-((R)-((R)-1-((S)-1-(1-adamantyl)-3-(methylamino)propan-2-ylcarbamoyl)piperidin-3-yl)(2,5-difluorophenyl)methoxy)ethylcarbamate]",< 10
15,"CNC[C@H](CC1CCC(F)(F)CC1)NC(=O)N1CCC[C@@H]([C@@H](OCCNC(=O)OC)c2cc(F)cc(Cl)c2)C1 [I*-153a, methyl 2-((R)-(3-chloro-5-fluorophenyl)((R)-1-((S)-1-(4,4-difluorocyclohexyl)-3-(methylamino)propan-2-ylcarbamoyl)piperidin-3-yl)methoxy)ethylcarbamate]",< 1
